The IC50 is the concentration at which inhibition is half-maximal.

The subject of one data set is MOLM-13. In words: CellTiter-Glo cell viability, 72 h, single agents and combination dose matrix. To be noted: Homo sapiens, MOLM-13, 72 h, single agent. The format is cell-based. The protocol: For MOLM-13, RPMI (R8758, Sigma Aldrich)+10% FBS (F0804, Sigma Aldrich), heat inactivated at 56° C. for 60 min.
(§1) 75 cm^2 flask (100% confluent) cells was transfer to a 15 ml tube and centrifuged at 1000 RPM for 5 min. Then supernatant was discarded, and cell pellet was resuspended in 6 ml medium. The cells were counted in the TC20 automated cell counter. 10 ml cell culture medium was prepared with 60,000 cells/ml, corresponding to 3,000 cells when 50 μl is seeded out (for MOLM-13, 12,000 cells were used). Cells were seeded in 96-well plates in column 2-12, row B-G, for blank, 100 μL cell culture medium was added. Plates were incubated overnight at 37° C.
(§2) Combenefit 2.021 was used for data analysis.
(§3) The CellTiter-Glo® Luminescent Cell Viability Assay is a homogeneous method of determining the number of viable cells in culture based on quantitation of the ATP present, an indicator of metabolically active cells. The homogeneous assay procedure involves adding the single reagent (CellTiter-Glo® Reagent) directly to cells cultured in serum-supplemented medium. The homogeneous “add-mix-measure” format results in cell lysis and generation of a luminescent signal proportional to the amount of ATP present. The amount of ATP is directly proportional to the number of cells present in culture.
(§4) The experimental dose-response surface that delineates combination effects in concentration space, is first read by the Combenefit software as a matrix of % of the control value across concentrations. […] Based on the two single agent dose response curves, a model-based combination dose-response surface is derived. This surface provides a “reference” dose-response surface for a non-synergistic (additive/independent) combination, whose characteristics are determined by the selected model (i.e., Loewe, Bliss or HSA). The experimental combination dose response surface is then compared to the model-generated one, resulting in a synergy distribution in concentration space.
(§5) This synergy distribution can be further summarized via various metrics (Di Veroli. C, Bioinformatics, 32(18), 2016, 2866-2868) as follows: • SYN_MAX—the maximum level of synergy observed. • SYN_SUM—the sum of synergy observed in concentration logarithmic space. For instance, an integrated synergy of 50 is equivalent to an extra synergistic effect of 50% which is spread over a square of 1 log×1 log in the 2-d log-concentration space.

The next data set concerns KBM-3. Described as above. In kind it is cell-based. The procedure: (§6) For cell lines KBM3, KG-1 and HL-60: IMEM (Sigma Cat. no. I3390), 20% FBS (Sigma Cat. no. F084) and 1% L-glutamine (Sigma, Cat.no. G7513).
as §1, §2, §3, §4, §5

A further data set concerns HL-60. The data set is described as above. The format is cell-based. To be noted: Homo sapiens. The protocol:
as §6, §1, §2, §3, §4, §5

Another data set has as its system KG-1. The data set is described as above. In kind it is cell-based. To be noted: Homo sapiens. The protocol:
as §6, §1, §2, §3, §4, §5

The next data set concerns MV4-11. Described as above. In kind it is cell-based. To be noted: Homo sapiens. The protocol:
For MV4-11: IMEM (Sigma Cat. no. I3390), 10% FBS (Sigma Cat. no. F084) and 1% L-glutamine (Sigma, Cat.no. G7513).
as §1, §2, §3, §4, §5

Data set [1] deals with AML cell lines. The data set is described as follows: CellTiter-Glo cell viability, results summarised over the cell line panel. To be noted: for IC50: read-out: IC50 values, range over cell lines.
Method: (§7) Plates was taken from the incubator to reach room temperature about 30 min. 100 μL CellTiter-Glo was added to all wells (except edge wells). Plates were then shaken on a plate shaker for 3 minutes at room temperature; thereafter the plates were set for 10 min at room temperature to allow cell lysis to appear. The luminescence was measured using the PerkinElmer Victor×4 instrument using the built-in program according to Instruction 11. Combenefit 2.021 was used for data analysis.
(§8) For IC50 determinations, the serial dilution of compounds was performed in cell culture medium based on 1.5- or 2-fold dilution factor. The serially diluted compounds were added to the cells and incubated for 72 h followed by cell viability test using the CTG assay. For each concentration, the current viability values were calculated and IC50 values were determined by XLfit software version 5.5.0.5 (a Microsoft Excel-based plug-in to perform regression, curve fitting and statistical analysis).
(§9) Combenefit performs combination analyses using the standard Loewe, Bliss and HSA methods. In the HSA model, the synergy score quantifies the excess over the highest single drug response. In the Loewe model, the synergy score quantifies the excess over the expected response if the two drugs are the same compound.
(§10) A “combination index” (CI) is then calculated as the measured cell viability of the sample with two co-incubated substances divided by the predicted cell viability.
(§11) If the measured cell viability for a combination of two substances is higher than the cell viability for one or both substances, the effect is considered antagonistic. If the predicted viability is very low, the quote “measured viability/predicted viability” may give false CI values.
For another data set, the system named is SKM-1. In words: CellTiter-Glo cell viability, 72 h, single agents and combination dose matrix. The format is cell-based. To be noted: single agent. The protocol: For SKM-1, RPMI (R8758, Sigma Aldrich)+20% FBS (F0804, Sigma Aldrich), heat inactivated at 56° C. for 60 min.
as §1, §2, §3
The experimental dose-response surface that delineates combination effects in concentration space, is first read by the Combenefit software as a matrix of % of the control value across concentrations. […] Based on the two single agent dose response curves, a model-based combination dose-response surface is derived. This surface provides a “reference” dose-response surface for a non-synergistic (additive/independent) combination, whose characteristics are determined by the selected model (i.e., Loewe, Bliss or HSA). The experimental combination dose response surface is then compared to the model-generated one, resulting in a synergy distribution in concentration space. […]

In data set [2] the test system is AML cell lines.
Method: as §7, §8, §9, §10, §11
The mark [3] stands for this setting: MOLM-13 (AML, p53 WT), separate study of Example 3.
Where [4] appears, read: Homo sapiens, SKM-1 (MDS, p53 R248Q).
Setting [5] is: KBM-3 (AML, p53 WT), single agent.
Where [6] appears, read: HL-60 (AML, p53 Null (deletion)), single agent.
[7] abbreviates: KG-1 (AML, p53 Intron6/splice), single agent.
The mark [8] stands for this setting: MV4-11 (AML, p53 R248W), single agent.

SMILES strings stand for the structures. Read-outs that look alike come from different tables or passages of the source.

Turning to `COc1ccccc1-c1nccc(COc2ccccc2CC(Oc2ncnc3sc(-c4ccc(F)cc4)c(-c4ccc(OCCN5CCN(C)CC5)c(Cl)c4C)c23)C(=O)O)n1` (stereo in doubt) [MIK665, (R)-2-((5-(3-chloro-2-methyl-4-(2-(4-methylpiperazin-1-yl)ethoxy)phenyl)-6-(4-fluorophenyl)thieno[2,3-d]pyrimidin-4-yl)oxy)-3-(2-((2-(2-methoxyphenyl)pyrimidin-4-yl)methoxy)phenyl)propanoic acid], the IC50 is 2 nM in the data set with MOLM-13 (MOLM-13, Example 4); 40 nM in the data set with KBM-3 (KBM-3, single agent, Example 4); 7 nM with HL-60 (HL-60, single agent, Example 4); 600 nM with KG-1 (KG-1, single agent, Example 4); 1.4 nM in the data set on MV4-11 (MV4-11, single agent, Example 4); 1 to 600 nM in the data set on AML cell lines [1]. The “single agent anti-proliferative activity” value with AML cell lines [1] is “dose-dependent anti-proliferative activity”.
With `O=C1C2CCN(CC2)C1CNC(=O)C(F)(F)F` (stereo not drawn) [Compound A, 2,2,2-trifluoro-N-((3-oxoquinuclidin-2-yl)methyl)acetamide], the IC50 in the data set on SKM-1 (SKM-1 (MDS/AML, p53 R248Q homo/hemizygous), separate study of Example 3) was determined as 660 nM; with MOLM-13 (setting [3]), 3600 nM; with KBM-3 (KBM-3, single agent, Example 3), 1700 nM; in the data set on MV4-11 (MV4-11, single agent, Example 3), 1000 nM. For the same molecule, the “single agent cytotoxic activity” value in the data set with AML cell lines [2] is reported as “dose-dependent cytotoxic activity”.
With `CC1(C)CCC(CN2CCN(c3ccc(C(=O)NS(=O)(=O)c4ccc(NCC5CCOCC5)c([N+](=O)[O-])c4)c(Oc4cnc5[nH]ccc5c4)c3)CC2)=C(c2ccc(Cl)cc2)C1` [ABT-199, 2-(1H-pyrrolo[2,3-b]pyridin-5-yloxy)-4-(4-((2-(4-chlorophenyl)-4,4-dimethylcyclohex-1-enyl)methyl)piperazin-1-yl)-N-(3-nitro-4-(((tetrahydro-2H-pyran-4-yl)methyl)amino)phenylsulfonyl)benzamide], the IC50 came to 70 nM in the data set on SKM-1 (setting [4]); 1 nM in the data set on MOLM-13 (MOLM-13 (AML, p53 WT)); 1.4 nM in the data set with MOLM-13 (setting [3]); 1360 nM with KBM-3 (setting [5]); 60 nM in the data set on HL-60 (setting [6]); 1500 nM in the data set on KG-1 (setting [7]). For the same molecule, the IC50 in the data set with MV4-11 (setting [8]) is 160 nM; in the data set with AML cell lines [1] (single agent, cell lines of Table 3) it was 1 to 1500 nM. Further, in the data set with AML cell lines [1], the “single agent anti-proliferative activity” value is listed as “dose-dependent anti-proliferative activity”. Further, the “single agent cytotoxic activity” value in the data set with AML cell lines [1] (MOLM-13 and SKM-1) is recorded as “dose-dependent cytotoxic activity”.
Turning to `COCC1(CO)C(=O)C2CCN1CC2` (stereo not drawn) [APR-246, 2-(hydroxymethyl)-2-(methoxymethyl)quinuclidin-3-one], the IC50 in the data set with SKM-1 (setting [4]) turned out to be 1090 nM; in the data set on MOLM-13 (MOLM-13 (AML, p53 WT)), 9500 nM; in the data set with KBM-3 (setting [5]), 3700 nM; in the data set with HL-60 (setting [6]) it was 8100 nM; with KG-1 (setting [7]) it was 11000 nM; in the data set on MV4-11 (setting [8]) it was 2500 nM. For the same molecule, the IC50 in the data set on AML cell lines [1] lay in the range of 1000 to 11000 nM. The “single agent anti-proliferative activity” value in the data set on AML cell lines [1] is given as “dose-dependent anti-proliferative activity”.

Values taken from patent publication US20220339141A1, “COMBINATION TREATMENT WITH A P53 REACTIVATOR AND AN INHIBITOR OF AN ANTIAPOPTOTIC BCL-2 FAMILY PROTEIN” (Aprea Therapeutics AB, priority 2019, published 2022).
